From patent US9334265B2, “3-amino-pyrazole derivatives useful against tuberculosis” (GLAXO GROUP LIMITED, priority 2010, dated 2016) come the findings set out here.

Experiment [1] concerns Mycobacterium tuberculosis H37Rv. Description: Mycobacterium tuberculosis H37Rv Inhibition Assay (Whole Cell Assay). In kind it is cell-based. Particulars: ATCC 25618 / H37Rv, H37Rv strain (ATCC25618), Middlebrook 7H9, six days at 37° C., resazurin fluorescence after 48 hours.
Experiment [2] deals with T1, InhA (Mycobacterium tuberculosis, UniProt P9WGR1).
T1 construct: made in house; host or cells: E. coli
The experiment in a line: Mycobacterium tuberculosis InhA Inhibition Assay (Enzyme Assay). In kind it is biochemical. Particulars: 5 nM InhA, 50 μM DDCoA, 50 μM NADH, PIPES buffer pH 6.8, initial velocities of NADH consumption. How it is done:
InhA is able to reduce 2-trans enoyl-CoA esters with concomitant oxidation of NADH to NAD^+. The assay format is based on the kinetic detection of NADH consumption.
Assay for InhA inhibition is carried out with mycobacterium recombinant protein expressed and purified form E. coli. Standard assay conditions for the determination of kinetic constants and inhibitors activity use 5 nM of InhA, 50 μM of Dodecenoyl-CoA synthesized and purified as described by Quémard et al (DDCoA) and 50 μM of NADH as substrates, and it is carried out in 30 mM PIPES buffer pH 6.8, containing 0.05% of BSA. […] Triclosan is used as positive control in every experiment. One μl of compounds is added to the wells containing 25 μl of the DDCoA+NADH mix, the reaction is started by adding 50 μl of the enzyme solution. Fluorescence from NADH is followed at room temperature during 20 minutes in a fluorescent plate reader (excitation at 340 nm; emission at 480 nm). IC50 values are determined using initial velocities of NADH consumption. • Quémard A, Sacchettini J C, Dessen A, et al. Enzymatic characterization of the target for isoniazid in Mycobacterium tuberculosis. Biochemistry 1995; 34:8235-41. Results of the Mycobacterium tuberculosis InhA Inhibition Assay (Enzyme Assay)

In general, MIC refers to the lowest concentration found to suppress growth. By IC50 is commonly meant the concentration at which inhibition is half-maximal.

SMILES strings stand for the structures. ≈ marks a conversion by molar mass, not a printed value. Where “and” joins values, the source holds several entries; their conditions need not be identical. Equal entries are not always repeated. Where two headings read alike, the source gives them in different places. Where only a bound is given, the exact number is not on record here.

T1 sequence (P9WGR1 whole entry, looked up): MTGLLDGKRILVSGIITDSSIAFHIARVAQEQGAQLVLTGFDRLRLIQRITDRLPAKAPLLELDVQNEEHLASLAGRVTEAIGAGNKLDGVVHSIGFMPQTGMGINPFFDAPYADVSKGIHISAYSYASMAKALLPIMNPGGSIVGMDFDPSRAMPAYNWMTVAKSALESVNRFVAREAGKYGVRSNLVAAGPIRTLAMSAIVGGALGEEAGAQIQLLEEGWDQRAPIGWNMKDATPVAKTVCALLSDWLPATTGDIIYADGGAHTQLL

In turn, `Cc1cc(C)n(C(C)c2nnc(Nc3ccn(Cc4ccccn4)n3)s2)n1` (centres unmarked) [Example 5, 5-[1-(3,5-dimethyl-1H-pyrazol-1-yl)ethyl]-N-[1-(2-pyridinylmethyl)-1H-pyrazol-3-yl]-1,3,4-thiadiazol-2-amine] gave an MIC in experiment [1] above 10 µM. This molecule displayed an IC50 in experiment [2] (IC50 value) of 263 to 1310 nM.

Consider `Cc1cc(C)n(C(C)c2nnc(Nc3ccn(Cc4ncccc4F)n3)s2)n1` (centres unmarked) [Example 6, 5-[1-(3,5-dimethyl-1H-pyrazol-1-yl)ethyl]-N-{1-[(3-fluoro-2-pyridinyl)methyl]-1H-pyrazol-3-yl}-1,3,4-thiadiazol-2-amine], for which the minimal inhibitory concentration (MIC) in experiment [1] is at most 4 µM. Further, the IC50 in experiment [2] (read-out: IC50 value) was at most 125 nM.

With `Cc1cc(C)n(C(C)c2nnc(Nc3ccn(Cc4cccnc4F)n3)s2)n1` (centres unmarked) [Example 7, 5-[1-(3,5-dimethyl-1H-pyrazol-1-yl)ethyl]-N-{1-[(2-fluoro-3-pyridinyl)methyl]-1H-pyrazol-3-yl}-1,3,4-thiadiazol-2-amine], the MIC in experiment [1] is 4 to 10 µM (≈ 1.59 to 3.98 µg/mL). For the same molecule, in experiment [2] (read-out: IC50 value), the IC50 was at most 125 nM.

For `Cc1cc(C)n(C(C)c2nnc(Nc3ccn(Cc4cnc(C)c(Cl)c4)n3)s2)n1` (centres unmarked) [Example 8, N-{1-[(5-chloro-6-methyl-3-pyridinyl)methyl]-1H-pyrazol-3-yl}-5-[1-(3,5-dimethyl-1H-pyrazol-1-yl)ethyl]-1,3,4-thiadiazol-2-amine], in experiment [1], the MIC is above 10 µM. For the same molecule, the IC50 in experiment [2] (read-out: IC50 value) was at most 117 nM.

Take `Cc1cc(C)n(C(C)c2nnc(Nc3ccn(Cc4ncc(Cl)cc4Cl)n3)s2)n1` (centres unmarked) [Example 9, N-{1-[(3,5-dichloro-2-pyridinyl)methyl]-1H-pyrazol-3-yl}-5-[1-(3,5-dimethyl-1H-pyrazol-1-yl)ethyl]-1,3,4-thiadiazol-2-amine]: the MIC in experiment [1] was above 10 µM. Besides, in experiment [2] (read-out: IC50 value), the IC50 was at most 111 nM.

In turn, `Cc1ccn(C(C)c2nnc(Nc3ccn(Cc4cccnc4F)n3)s2)n1` (centres unmarked) [Example 10, N-{1-[(2-fluoro-3-pyridinyl)methyl]-1H-pyrazol-3-yl}-5-[1-(3-methyl-1H-pyrazol-1-yl)ethyl]-1,3,4-thiadiazol-2-amine] gave a minimal inhibitory concentration (MIC) in experiment [1] above 10 µM. Moreover, the IC50 in experiment [2] (IC50 value) is 130 to 260 nM.

`CCOc1ncccc1Cn1ccc(Nc2nnc(C(C)n3nc(C)cc3C)s2)n1` (centres unmarked) [Example 11, 5-[1-(3,5-dimethyl-1H-pyrazol-1-yl)ethyl]-N-(1-{[2-(ethyloxy)-3-pyridinyl]methyl}-1H-pyrazol-3-yl)-1,3,4-thiadiazol-2-amine] yielded an MIC in experiment [1] above 10 µM. In experiment [2] (IC50 value), this molecule displayed an IC50 above 1180 nM.

`Cc1csc(C(C)(O)c2nnc(Nc3ccn(Cc4ncc(F)cc4F)n3)s2)n1` (centres unmarked) [Example 12, 1-[5-({1-[(3,5-difluoro-2-pyridinyl)methyl]-1H-pyrazol-3-yl}amino)-1,3,4-thiadiazol-2-yl]-1-(4-methyl-1,3-thiazol-2-yl)ethanol]: in experiment [1], the MIC was at most 4 µM. In experiment [2] (IC50 value), the IC50 was in the range of 115 to 230 nM.

`Cc1csc(C(C)(O)c2nnc(Nc3ccn(Cc4ncccc4C)n3)s2)n1` (centres unmarked) [Example 14, 1-[5-({1-[(3-methyl-2-pyridinyl)methyl]-1H-pyrazol-3-yl}amino)-1,3,4-thiadiazol-2-yl]-1-(4-methyl-1,3-thiazol-2-yl)ethanol]: the MIC in experiment [1] was at most 1 µM. Also, the IC50 in experiment [2] (IC50 value) was ≤ 121 nM and 9.67 nM.

In the case of `Cc1csc(C(C)(O)c2nnc(Nc3ccn(Cc4ccc5ccccc5n4)n3)s2)n1` (centres unmarked) [Example 15, 1-(4-methyl-1,3-thiazol-2-yl)-1-(5-{[1-(2-quinolinylmethyl)-1H-pyrazol-3-yl]amino}-1,3,4-thiadiazol-2-yl)ethanol], in experiment [1], the MIC is at most 4 µM. Moreover, the IC50 in experiment [2] (read-out: IC50 value) was at most 111 nM.

`Cc1csc(C(C)(O)c2nnc(Nc3ccn(Cc4csc(N)n4)n3)s2)n1` (centres unmarked) [Example 17, 1-[5-({1-[(2-amino-1,3-thiazol-4-yl)methyl]-1H-pyrazol-3-yl}amino)-1,3,4-thiadiazol-2-yl]-1-(4-methyl-1,3-thiazol-2-yl)ethanol]: the MIC in experiment [1] is above 10 µM. The molecule further showed an IC50 in experiment [2] (IC50 value) of 238 to 1190 nM.

`Cc1csc(C(C)(O)c2nnc(Nc3ccn(Cc4cccc(F)n4)n3)s2)n1` (centres unmarked) [Example 18, 1-[5-({1-[(6-fluoro-2-pyridinyl)methyl]-1H-pyrazol-3-yl}amino)-1,3,4-thiadiazol-2-yl]-1-(4-methyl-1,3-thiazol-2-yl)ethanol] displayed an MIC in experiment [1] of at most 1 µM. In addition, the IC50 in experiment [2] (read-out: IC50 value) is at most 120 nM.

In experiment [1], `Cc1csc(C(C)(O)c2nnc(Nc3ccn(Cc4nccc5ccccc45)n3)s2)n1` (centres unmarked) [Example 19, 1-(5-{[1-(1-isoquinolinylmethyl)-1H-pyrazol-3-yl]amino}-1,3,4-thiadiazol-2-yl)-1-(4-methyl-1,3-thiazol-2-yl)ethanol] gave a minimal inhibitory concentration (MIC) of 4 to 10 µM (≈ 1.8 to 4.5 µg/mL). For the same molecule, the IC50 in experiment [2] (read-out: IC50 value) was at most 111 nM.

The molecule `Cc1csc(C(C)(O)c2nnc(Nc3ccn(Cc4cccc5cccnc45)n3)s2)n1` (centres unmarked) [Example 20, 1-(4-methyl-1,3-thiazol-2-yl)-1-(5-{[1-(8-quinolinylmethyl)-1H-pyrazol-3-yl]amino}-1,3,4-thiadiazol-2-yl)ethanol] had an MIC in experiment [1] of at most 4 µM. The IC50 in experiment [2] (read-out: IC50 value) is at most 111 nM.

`Cc1csc(C(C)(O)c2nnc(Nc3ccn(Cc4cc(C)on4)n3)s2)n1` (centres unmarked) [Example 22, 1-[5-({1-[(5-methyl-3-isoxazolyl)methyl]-1H-pyrazol-3-yl}amino)-1,3,4-thiadiazol-2-yl]-1-(4-methyl-1,3-thiazol-2-yl)ethanol] had an MIC in experiment [1] of 4 to 10 µM (≈ 1.61 to 4.03 µg/mL). For the same molecule, the IC50 in experiment [2] (read-out: IC50 value) was 124 to 248 nM.

Regarding `Cc1ccn(C(C)c2nnc(Nc3ccn(Cc4csc(C)n4)n3)s2)n1` (centres unmarked) [Example 23, 5-[1-(3-methyl-1H-pyrazol-1-yl)ethyl]-N-{1-[(2-methyl-1,3-thiazol-4-yl)methyl]-1H-pyrazol-3-yl}-1,3,4-thiadiazol-2-amine], the MIC in experiment [1] was 4 to 10 µM (≈ 1.55 to 3.87 µg/mL). The IC50 in experiment [2] (read-out: IC50 value) fell in the range of 129 to 259 nM.

The molecule `Cc1csc(C(C)(O)c2nnc(Nc3ccn(Cc4cn5ccccc5n4)n3)s2)n1` (centres unmarked) [Example 24, 1-(5-{[1-(imidazo[1,2-a]pyridin-2-ylmethyl)-1H-pyrazol-3-yl]amino}-1,3,4-thiadiazol-2-yl)-1-(4-methyl-1,3-thiazol-2-yl)ethanol] came in with an MIC in experiment [1] of 4 to 10 µM (≈ 1.75 to 4.39 µg/mL). In addition, the IC50 in experiment [2] (read-out: IC50 value) fell in the range of 114 to 228 nM.

Regarding `Cc1csc(C(C)(O)c2nnc(Nc3ccn(Cc4cnn(C)c4)n3)s2)n1` (centres unmarked) [Example 25, 1-[5-({1-[(1-methyl-1H-pyrazol-4-yl)methyl]-1H-pyrazol-3-yl}amino)-1,3,4-thiadiazol-2-yl]-1-(4-methyl-1,3-thiazol-2-yl)ethanol], in experiment [1], the MIC is above 10 µM. In experiment [2] (IC50 value), this molecule gave an IC50 of 248 to 1240 nM.

As to `Cc1csc(C(C)(O)c2nnc(Nc3ccn(Cc4c(C)noc4C)n3)s2)n1` (centres unmarked) [Example 26, 1-[5-({1-[(3,5-dimethyl-4-isoxazolyl)methyl]-1H-pyrazol-3-yl}amino)-1,3,4-thiadiazol-2-yl]-1-(4-methyl-1,3-thiazol-2-yl)ethanol], the MIC in experiment [1] was above 10 µM. Also, in experiment [2] (IC50 value), the IC50 was above 1200 nM.

On to `Cc1ccn(C(C)c2nnc(Nc3ccn(Cc4c(C)noc4C)n3)s2)n1` (centres unmarked) [Example 27, N-{1-[(3,5-dimethyl-4-isoxazolyl)methyl]-1H-pyrazol-3-yl}-5-[1-(3-methyl-1H-pyrazol-1-yl)ethyl]-1,3,4-thiadiazol-2-amine], for which the MIC in experiment [1] was above 10 µM. This molecule also had an IC50 in experiment [2] (IC50 value) above 1300 nM.

In turn, `Cc1csc(C(C)(O)c2nnc(Nc3cc(C)n(Cc4ncccc4F)n3)s2)n1` (centres unmarked) [Example 28, 1-[5-({1-[(3-fluoro-2-pyridinyl)methyl]-5-methyl-1H-pyrazol-3-yl}amino)-1,3,4-thiadiazol-2-yl]-1-(4-methyl-1,3-thiazol-2-yl)ethanol] yielded an MIC in experiment [1] of at most 4 µM. For the same molecule, the IC50 in experiment [2] (IC50 value) is at most 116 nM.

`Cc1ccn(C(C)c2nnc(Nc3cc(C)n(Cc4ncccc4F)n3)s2)n1` (centres unmarked) [Example 29, N-{1-[(3-fluoro-2-pyridinyl)methyl]-5-methyl-1H-pyrazol-3-yl}-5-[1-(3-methyl-1H-pyrazol-1-yl)ethyl]-1,3,4-thiadiazol-2-amine] came in with an MIC in experiment [1] of at most 4 µM. In experiment [2] (IC50 value), this molecule yielded an IC50 of at most 125 nM.

In the case of `CCOc1cnc(Cn2ccc(Nc3nnc(C(C)(O)c4nc(C)cs4)s3)n2)c(F)c1` (centres unmarked) [Example 30, 1-{5-[(1-{[5-(ethyloxy)-3-fluoro-2-pyridinyl]methyl}-1H-pyrazol-3-yl)amino]-1,3,4-thiadiazol-2-yl}-1-(4-methyl-1,3-thiazol-2-yl)ethanol], in experiment [1], the minimal inhibitory concentration (MIC) is above 10 µM. Besides, in experiment [2] (IC50 value), the IC50 lay within 217 to 1080 nM.

As to `COc1c(C)cnc(Cn2ccc(Nc3nnc(C(C)(O)c4nc(C)cs4)s3)n2)c1C` (centres unmarked) [Example 31, 1-{5-[(1-{[3,5-dimethyl-4-(methyloxy)-2-pyridinyl]methyl}-1H-pyrazol-3-yl)amino]-1,3,4-thiadiazol-2-yl}-1-(4-methyl-1,3-thiazol-2-yl)ethanol], in experiment [1], the MIC was above 10 µM. In experiment [2] (IC50 value), the IC50 lay within 219 to 1090 nM.

Take `Cc1csc(C(C)(O)c2nnc(Nc3ccn(Cc4c(F)cncc4F)n3)s2)n1` (centres unmarked) [Example 32, 1-[5-({1-[(3,5-difluoro-4-pyridinyl)methyl]-1H-pyrazol-3-yl}amino)-1,3,4-thiadiazol-2-yl]-1-(4-methyl-1,3-thiazol-2-yl)ethanol]: the minimal inhibitory concentration (MIC) in experiment [1] was above 10 µM. In addition, the half-maximal inhibitory concentration (IC50) in experiment [2] (IC50 value) is above 1150 nM.
